Counter-ions that a name gives are not always drawn.
What was measured:
18f-NLuc reporter virus = test: microbe, parasite or virus in culture; assay type: cell-based, Hepatitis A virus; conditions: for activity at 10 µM: Hepatovirus A, Huh-7.5.1, 72 h, read-out: Normalized HAV production
Huh-7.5.1 cells = test: Cell viability in the chemical screen (Cell TiterGlo); conditions: 10 µM compound, 72 h

Row | Molecule | activity at 10 µM (18f-NLuc reporter virus) | Viability Percent DMSO (Huh-7.5.1 cells) | Normalized HAV production (18f-NLuc reporter virus)
1 | O=C(Nc1ccc(O)cc1)c1ccccc1O [Osalmid] | 132% | 93 Percent DMSO | 
2 | CC(C)OC(=O)[C@H](C)N[P@](=O)(OC[C@H]1O[C@@H](n2ccc(=O)[nH]c2=O)[C@](C)(F)[C@@H]1O)Oc1ccccc1 [Sofosbuvir] | 38% | 130 Percent DMSO | 
3 | Nc1ccn([C@@H]2O[C@H](CO)[C@@H](O)[C@@H]2O)c(=O)n1 [Cytarabine] | 66% | 97 Percent DMSO | 
4 | COC(=O)N[C@H](C(=O)N[C@@H](Cc1ccccc1)[C@@H](O)CN(Cc1ccc(-c2ccccn2)cc1)NC(=O)[C@@H](NC(=O)OC)C(C)(C)C)C(C)(C)C [Atazanavir] | 96% | 130 Percent DMSO | 
5 | O=c1[nH]cc(F)c(=O)[nH]1 [Fluorouracil] | 84% | 103 Percent DMSO | 
6 | O=c1[nH]cnc2c1ncn2[C@H]1CC[C@@H](CO)O1 [Didanosine] | 155% | 108 Percent DMSO | 
7 | Nc1nc2c(ncn2[C@@H]2O[C@H](CO)[C@@H](O)[C@H]2O)c(=O)[nH]1 [Guanosine] | 88% | 126 Percent DMSO | 
8 | O=C(O)c1ccccc1C(=O)Nc1ccc(S(=O)(=O)Nc2nccs2)cc1 [Phthalylsulfathiazole] | 83% | 112 Percent DMSO | 
9 | O=C(O)c1cc(=O)[nH]c(=O)[nH]1 [Orotic acid] | 85% | 105 Percent DMSO | 
10 | C[C@@H]1CC[C@H]2[C@@H](C)C(=O)O[C@@H]3O[C@@]4(C)CC[C@@H]1[C@]32OO4 [Artemisinin] | 76% | 101 Percent DMSO | 
11 | C=C1CC[C@@H]2[C@](C)(CO)[C@H](O)CC[C@@]2(C)[C@@H]1C/C=C1/C(=O)OC[C@H]1O [Andrographolide] | 86% | 106 Percent DMSO | 
12 | CC(N)C12CC3CC(CC(C3)C1)C2 (stereo not shown) [Rimantadine hydrochloride] | 113% | 98 Percent DMSO | 
13 | O=C[C@H](O)[C@H]1OC(=O)[C@@H](O)[C@H]1O [Dicurone] |  |  | 1.16
14 | CC(C)c1nc(CN(C)C(=O)N[C@H](C(=O)N[C@@H](Cc2ccccc2)C[C@H](O)[C@H](Cc2ccccc2)NC(=O)OCc2cncs2)C(C)C)cs1 [Ritonavir] | 34% |  | 
15 | Cc1cn([C@@H]2C[C@@H](O)[C@H](CO)O2)c(=O)[nH]c1=O [Telbivudine] | 156% | 108 Percent DMSO | 
16 | COC(=O)C1=C(C)NC(c2ncc(F)cc2F)=NC1c1ccc(F)cc1Cl (racemic) [Bay 41-4109 racemate] |  |  | 0.84
17 | COc1ccnc(C[S+]([O-])c2nc3ccc(-n4cccc4)cc3[n-]2)c1C.[Na+] (stereo not shown) [Ilaprazole sodium] |  | 159 Percent DMSO | 0.66
18 | CCCCCCCCCC(=O)O[C@H]1CC[C@H]2[C@@H]3CCC4=CC(=O)CC[C@@H]4[C@H]3CC[C@]12C [Nandrolone decanoate] | 117% | 113 Percent DMSO | 
19 | CC1(C)O[C@H]2CC(=O)OC[C@]23[C@H]2CC[C@@]4(C)[C@H](c5ccoc5)OC(=O)[C@H]5O[C@]54[C@]2(C)C(=O)C[C@@H]13 [Limonin] | 85% | 111 Percent DMSO | 
20 | C=C1[C@H](CO)[C@@H](O)C[C@@H]1n1cnc2c(=O)[nH]c(N)nc21 [Entecavir hydrate] | 93% | 125 Percent DMSO | 
21 | O=S(=O)(CCC(F)=C(F)F)c1ncc(Cl)s1 [Fluensulfone] |  | 128 Percent DMSO | 0.97
22 | C[C@H](Cn1cnc2c(N)ncnc21)OCP(=O)(O)O [Tenofovir] | 128% | 118 Percent DMSO | 
23 | Cc1cnc(C(=O)N[C@H]2CCCCC/C=C\[C@@H]3C[C@@]3(C(=O)NS(=O)(=O)C3CC3)NC(=O)[C@@H]3C[C@@H](Oc4nc5ccccc5c5ccccc45)CN3C2=O)cn1 [Paritaprevir] | 64% | 91 Percent DMSO | 
24 | Clc1ccccc1C(c1ccccc1)(c1ccccc1)n1ccnc1 [Clotrimazole] | 85% |  | 
25 | CC(=O)N(CC(O)CO)c1c(I)c(C(=O)NCC(O)CO)c(I)c(C(=O)NCC(O)CO)c1I (stereo not shown) [Iohexol] | 157% | 74 Percent DMSO | 
26 | CC(=O)OCC(CCn1cnc2cnc(N)nc21)COC(C)=O [Famciclovir] | 115% | 123 Percent DMSO | 
27 | O=C(Nc1ccccc1)c1ccccc1O [Salicylanilide] | 76% | 120 Percent DMSO | 
28 | C[C@@H]1CCO[C@H]2Cn3cc(C(=O)NCc4ccc(F)cc4F)c(=O)c(O)c3C(=O)N12 [Dolutegravir] | 49% | 159 Percent DMSO | 

Row | Molecule | activity at 10 µM (18f-NLuc reporter virus) | Viability Percent DMSO (Huh-7.5.1 cells) | Normalized HAV production (18f-NLuc reporter virus)
29 | CCOC(=O)CCC(=O)O[C@H]1[C@H](O[C@@H]2[C@@H](C)[C@H](O[C@H]3C[C@@](C)(OC)[C@@H](O)[C@H](C)O3)[C@@H](C)C(=O)O[C@H](CC)[C@@](C)(O)[C@H](O)[C@@H](C)C(=O)[C@H](C)C[C@@]2(C)O)O[C@H](C)C[C@@H]1N(C)C [Erythromycin ethylsuccinate] | 60% | 107 Percent DMSO | 
30 | CC1(C)[C@@H](O[C@H]2O[C@H](C(=O)O)[C@@H](O)[C@H](O)[C@H]2O[C@@H]2O[C@H](C(=O)O)[C@@H](O)[C@H](O)[C@H]2O)CC[C@]2(C)[C@H]3C(=O)C=C4[C@@H]5C[C@@](C)(C(=O)O)CC[C@]5(C)CC[C@@]4(C)[C@]3(C)CC[C@@H]12.N.N [Diammonium Glycyrrhizinate] |  | 116 Percent DMSO | 0.78
31 | CC1(C)CC[C@]2(C(=O)O)CC[C@]3(C)C(=CC[C@@H]4[C@@]5(C)CCC(=O)C(C)(C)[C@@H]5CC[C@]43C)[C@@H]2C1 [Oleanonic Acid] | 935% | 1.23 Percent DMSO | 
32 | Nc1ccn([C@H]2CC[C@@H](CO)O2)c(=O)n1 [Zalcitabine] | 98% | 99 Percent DMSO | 
33 | COc1ccc([C@H]2OC[C@H]3[C@@H]2CO[C@H]3c2ccc(O[C@@H]3O[C@H](CO)[C@@H](O)[C@H](O)[C@H]3O)c(OC)c2)cc1OC [Forsythin] |  | 127 Percent DMSO | 1.06
34 | O=C1Nc2ccc(Cl)cc2[C@@](C#CC2CC2)(C(F)(F)F)O1 [Efavirenz] | 46% | 165 Percent DMSO | 
35 | COc1ccc(C2CNC(=O)C2)cc1OC1CCCC1 (stereo not shown) [Rolipram] | 130% | 113 Percent DMSO | 
36 | Nc1ncnc2c1ncn2[C@@H]1O[C@H](CO)[C@@H](O)[C@@H]1O [Vidarabine] | 104% | 119 Percent DMSO | 
37 | CC[C@@H](CO)NCCN[C@@H](CC)CO [Ethambutol dihydrochloride] | 83% | 112 Percent DMSO | 
38 | Cc1cn([C@H]2O[C@@H](CO)[C@H](O)[C@H]2F)c(=O)[nH]c1=O [Clevudine] | 84% | 132 Percent DMSO | 
39 | CN(C)c1ccc(C(=C2C=CC(=[N+](C)C)C=C2)c2ccc(N(C)C)cc2)cc1 [Crystal Violet] | 0.413% | 20 Percent DMSO | 
40 | C=CC1=C(C(=O)O)N2C(=O)[C@@H](NC(=O)/C(=N\OCC(=O)O)c3csc(N)n3)[C@H]2SC1 [Cefixime] | 90% | 109 Percent DMSO | 
41 | NC(=O)N1CCC(CC(=O)N2CCC([C@H]3c4ncc(Br)cc4CCc4cc(Cl)cc(Br)c43)CC2)CC1 [Lonafarnib] | 18% | 167 Percent DMSO | 
42 | Cc1cccc(C)c1N(CC(=O)Nc1ccc(-c2ncon2)cc1)C(=O)C1CCS(=O)(=O)CC1 [Amenamevir] | 109% | 116 Percent DMSO | 
43 | CN(C)[C@@H]1C(O)=C(C(N)=O)C(=O)[C@@]2(O)C(O)=C3C(=O)c4c(O)cccc4[C@@](C)(O)[C@H]3[C@H](O)[C@@H]12 [Oxytetracycline] | 87% | 103 Percent DMSO | 
44 | O=C(Nc1nc2ccc3scnc3c2s1)c1ccc2ccccc2c1 [KIN1148] |  | 107 Percent DMSO | 1.39
45 | O[C@H]1[C@H](O)[C@@H](O)[C@H](O)[C@@H](O)[C@H]1O [Inositol] | 122% | 93 Percent DMSO | 
46 | Cn1c(Cn2ccc(C(F)(F)F)c(Oc3cc(Cl)cc(C#N)c3)c2=O)n[nH]c1=O [Doravirine] | 140% | 95 Percent DMSO | 
47 | NC(=O)c1nc(F)c[nH]c1=O [Favipiravir] | 56% | 128 Percent DMSO | 
48 | Cc1nnc(C(=O)NC(C)(C)c2nc(C(=O)NCc3ccc(F)cc3)c(O)c(=O)n2C)o1 [Raltegravir] | 124% | 132 Percent DMSO | 
49 | CC(C)OC(=O)C1=CN(C(=O)c2ccc(F)c(F)c2)CC(C)(C)c2c1[nH]c1ccccc21 [Turofexorate Isopropyl] | 100% | 161 Percent DMSO | 
50 | C[C@H]1CC[C@@]2(O)C(C)(C)[C@@H]3CC[C@@]2(C)[C@H]1C3 [Patchouli alcohol] |  | 122 Percent DMSO | 1.10
51 | C[C@H](NC(=O)C(=O)Nc1ccccc1C(C)(C)C)C(=O)N[C@@H](CC(=O)O)C(=O)COc1c(F)c(F)cc(F)c1F [Emricasan] | 164% | 90 Percent DMSO | 
52 | O=c1c2ccccc2[se]n1-c1ccccc1 [Ebselen] | 56% | 123 Percent DMSO | 
53 | Clc1ccc(COC(Cn2ccnc2)c2ccc(Cl)cc2Cl)c(Cl)c1 (stereo not shown) [Miconazole] | 74% |  | 
54 | Maraviroc |  |  | 0.94
55 | Clc1ccc(COC(Cn2ccnc2)c2ccc(Cl)cc2Cl)cc1 (stereo not shown) [Econazole] | 100% |  | 

Source: article PMC12282101, “Heat shock protein 90 chaperone activity is required for hepatitis A virus replication” (Journal of Virology, 2025)
